Reference: patent US9481636B2, “N-benzylaniline derivative and uses thereof” (Nanjing Medical University, priority 2011, dated 2016)

The compounds below were run on OGD-injuried neurons (primary cortical neurons) (assay: Cell viability assay: LDH release by OGD-injured primary cortical neurons). Settings: Mus musculus, Primary cortical neuron; drug concentration 10^−6 M/L; OGD 2 hours, LDH after 8 hours.
Format: cell-based, mice
Method: After primary neurons were cultured for 9 days, the medium was replaced by DMEM high glucose medium containing 1% FBS, serum-starved overnight and then washed twice with OGD culture solution. This OGD culture solution contains DMEM medium, 1% FBS, 1% penicillin/streptomycin and B27, and contains no sugar. Then, the primary neurons were incubated with the test drugs for 30 minutes, OGD culture solution was added into an anaerobic tank and oxygen-deprived for 2 hours. The OGD culture solution was discarded, and replaced by oxygen-saturated DMEM medium containing 1% FBS, 1% penicillin/streptomycin and B27. After 8 hours the culture solution was collected to measure LDH level.
After the primary cortical neurons were treated with various processes, neuronal culture solution in six-well plates was pipetted to a 1.5 mL plastic centrifuge tube; cells were washed three times with PBS solution and each well was added PBS 1000 μl. The cells were freezed and thawed repeated for three times, centrifuged at 12000′ g for 5 minutes at 4° C., and the supernatant was removed for use. The activity of LDH enzyme was determined with 50 μl culture solution and 25 μl supernatant using lactate dehydrogenase kit.
Protective Effects of the Objective Compounds Against Primary Cortical Neuronal Injury Cultured In Vitro (See Table 2)

SMILES	inhibition at 1 µM [%]
CC(Nc1ccc(C(=O)O)c(O)c1)c1cc(Br)ccc1O (centres unmarked) [ZL006-15, 2-hydroxy-4-[1-(2-hydroxy-5-bromo-phenyl)]ethylaminobenzoic acid]	28.6
CC1(C)C2CCC1(C)C(OC(=O)c1ccc(NCc3cc(Cl)cc(Cl)c3O)c(Cl)c1O)C2 (centres unmarked) [ZL006-17, bornyl-2-hydroxy-3-chloro-4-(2-hydroxy-3,5-dichlorobenzyl)aminobenzoate]	48.2
CC(=O)Oc1c(C(=O)OC2CC3CCC2(C)C3(C)C)ccc(NCc2cc(Cl)cc(Cl)c2O)c1Cl (centres unmarked) [ZL006-19, bornyl-2-acetyloxy-3-chloro-4-(2-hydroxy-3,5-dichlorobenzyl)aminobenzoate]	23.9
COc1c(C(=O)OC2CC3CCC2(C)C3(C)C)ccc(NCc2cc(Cl)cc(Cl)c2O)c1Cl (centres unmarked) [ZL006-26, bornyl-2-methoxy-3-chloro-4-(2-hydroxy-3,5-dichlorobenzyl)aminobenzoate]	35.4
CCCC(=O)Oc1cc(NCc2cc(Br)cc(Cl)c2O)ccc1C(=O)OC1CC2CCC1(C)C2(C)C (centres unmarked) [ZL006-44, bornyl-2-butyryloxy-4-(2-hydroxy-3-chloro-5-bromobenzyl)aminobenzoate]	43.5
CC1(C)C2CCC1(C)C(OC(=O)c1ccc(NCc3cc(C(F)(F)F)cc(Cl)c3O)cc1O)C2 (centres unmarked) [ZL006-47, bornyl-2-hydroxy-4-(2-hydroxy-3-chloro-5-trifluoromethylbenzyl)aminobenzoate]	84.2
CC1(C)C2CCC1(C)C(OC(=O)c1cc(NCc3cc(C(F)(F)F)cc(Cl)c3O)ccc1O)C2 (centres unmarked) [ZL006-48, bornyl-2-hydroxy-5-(2-hydroxy-3-chloro-5-trifluoromethylbenzyl)aminobenzoate]	21.1
COc1cc(NCc2cc(C(F)(F)F)cc(Cl)c2O)ccc1C(=O)OC1CC2CCC1(C)C2(C)C (centres unmarked) [ZL006-49, bornyl-2-methoxy-4-(2-hydroxy-3-chloro-5-trifluoromethylbenzyl)aminobenzoate]	32.6
CCCCOc1cc(NCc2cc(C(F)(F)F)cc(Cl)c2O)ccc1C(=O)OC1CC2CCC1(C)C2(C)C (centres unmarked) [ZL006-50, bornyl-2-n-butoxy-4-(2-hydroxy-3-chloro-5-trifluoromethylbenzyl)aminobenzoate]	40.2
CC(=O)Oc1cc(NCc2cc(C(F)(F)F)cc(Cl)c2O)ccc1C(=O)OC1CC2CCC1(C)C2(C)C (centres unmarked) [ZL006-51, bornyl-2-acetyloxy-4-(2-hydroxy-3-chloro-5-trifluoromethylbenzyl)aminobenzoate]	66.3

Same assay, conditions: drug concentration 10^−6 M/L; OGD 2 hours, LDH after 8 hours

SMILES	Inhibition of LDH release (%)
CC1(C)C2CCC1(C)C(OC(=O)c1cc(NCc3cc(Cl)cc(Cl)c3O)ccc1O)C2 (centres unmarked) [ZL006-01, bornyl-2-hydroxy-5-(2-hydroxy-3,5-dichlorobenzyl) aminobenzoate]	2.3
CC(=O)Oc1ccc(NCc2cc(Cl)cc(Cl)c2O)cc1C(=O)OC1CC2CCC1(C)C2(C)C (centres unmarked) [ZL006-02, bornyl-2-acetyloxy-5-(2-hydroxy-3,5-dichlorobenzyl) aminobenzoate]	21.4
CC1(C)C2CCC1(C)C(OC(=O)c1cc(NCc3cc(Cl)ccc3O)ccc1O)C2 (centres unmarked) [ZL006-03, bornyl-2-hydroxy-5-(2-hydroxy-5-chlorobenzyl) aminobenzoate]	17.8
CC1(C)C2CCC1(C)C(OC(=O)c1cc(NCc3cc(Br)ccc3O)ccc1O)C2 (centres unmarked) [ZL006-04, bornyl-2-hydroxy-5-(2-hydroxy-5-bromobenzyl) aminobenzoate]	26.9
CC(=O)Oc1cc(NCc2cc(F)cc(Cl)c2O)ccc1C(=O)OC1CC2CCC1(C)C2(C)C (centres unmarked) [ZL006-07, bornyl-2-acetyloxy-4-(2-hydroxy-3-chloro-5-fluorobenzyl) aminobenzoate]	20.7
CC1(C)C2CCC1(C)C(OC(=O)c1ccc(NCc3cc(F)cc(Cl)c3O)cc1O)C2 (centres unmarked) [ZL006-08, bornyl-2-hydroxy-4-(2-hydroxy-3-chloro-5-fluorobenzyl) aminobenzoate]	50.4
CN(Cc1cc(Cl)cc(Cl)c1O)c1ccc(C(=O)O)c(O)c1 [ZL006-09, 2-hydroxy-4-[N-(2-hydroxy-3,5-dichlorobenzyl)-N-methyl]aminobenzoic acid]	29.5
CC(=O)Oc1cc(N(Cc2cc(Cl)cc(Cl)c2O)C(C)=O)ccc1C(=O)O [ZL006-10, 2-acetyloxy-4-[N-(2-hydroxy-3,5-dichlorobenzyl)-N-acetyl]aminobenzoic acid]	42.3
COC(=O)c1cc(N(C)Cc2cc(F)cc(Cl)c2O)ccc1O [ZL006-11, methyl 2-hydroxy-5-[N-(2-hydroxy-3-chloro-5-fluorobenzyl)-N-methyl]aminobenzoate]	41.1
CN(Cc1cc(Cl)cc(Cl)c1O)c1ccc(O)c(C(=O)O)c1 [ZL006-12, 2-hydroxy-5-[N-(2-hydroxy-3,5-dichlorobenzyl)-N-methyl]aminobenzoic acid]	15.1
CCOC(=O)c1ccc(N(C)Cc2cc(Cl)cc(Cl)c2O)cc1C(=O)OCC [ZL006-13, diethyl 4-[N-(3,5-dichloro-2-hydroxybenzyl)-N-methyl]aminophthalate]	31.4
CC(Nc1ccc(C(=O)O)c(O)c1)c1cc(Cl)ccc1O (centres unmarked) [ZL006-14, 2-hydroxy-4-[1-(2-hydroxy-5-chlorophenyl)]-ethylaminobenzoic acid]	19.9
CC(=O)Oc1cc(NCc2cc(Cl)cc(Cl)c2O)c(Cl)cc1C(=O)OC1CC2CCC1(C)C2(C)C (centres unmarked) [ZL006-18, bornyl-2-acetyloxy-4-(2-hydroxy-3,5-dichlorobenzyl) amino-5-chlorobenzoate]	41.5
COc1cc(NCc2cc(Cl)cc(Cl)c2O)ccc1C(=O)OC1CC2CCC1(C)C2(C)C (centres unmarked) [ZL006-20, bornyl-2-methoxy-4-(2-hydroxy-3,5-dichlorobenzyl) aminobenzoate]	11.1
CCCCOc1cc(NCc2cc(Cl)cc(Cl)c2O)ccc1C(=O)OC1CC2CCC1(C)C2(C)C (centres unmarked) [ZL006-21, bornyl-2-n-butoxy-4-(2-hydroxy-3,5-dichlorobenzyl) aminobenzoate]	6.2
CCCCCCOc1cc(NCc2cc(Cl)cc(Cl)c2O)ccc1C(=O)OC1CC2CCC1(C)C2(C)C (centres unmarked) [ZL006-22, bornyl-2-n-hexyloxy-4-(2-hydroxy-3,5-dichlorobenzyl) aminobenzoate]	2.5
CCCC(=O)Oc1cc(NCc2cc(Cl)cc(Cl)c2O)ccc1C(=O)OC1CC2CCC1(C)C2(C)C (centres unmarked) [ZL006-23, bornyl-2-butyryloxy-4-(2-hydroxy-3,5-dichlorobenzyl) aminobenzoate]	18.7
CCCCCC(=O)Oc1cc(NCc2cc(Cl)cc(Cl)c2O)ccc1C(=O)OC1CC2CCC1(C)C2(C)C (centres unmarked) [ZL006-24, bornyl-2-hexanoyloxy-4-(2-hydroxy-3,5-dichlorobenzyl) aminobenzoate]	31.2
COc1cc(NCc2cc(Cl)cc(Cl)c2O)c(Cl)cc1C(=O)OC1CC2CCC1(C)C2(C)C (centres unmarked) [ZL006-25, bornyl-2-methoxy-4-(2-hydroxy-3,5-dichlorobenzyl) amino-5-chlorobenzoate]	30.6
CN(Cc1cc(Cl)cc(Cl)c1O)c1ccc(C(=O)OC2CC3CCC2(C)C3(C)C)c(O)c1 (centres unmarked) [ZL006-27, bornyl-2-hydroxy-4-[N-(2-hydroxy-3,5-dichlorobenzyl)-N-methyl]aminobenzoate]	25.3
COc1cc(N(C)Cc2cc(Cl)cc(Cl)c2O)ccc1C(=O)OC1CC2CCC1(C)C2(C)C (centres unmarked) [ZL006-29, bornyl-2-methoxy-4-[N-(2-hydroxy-3,5-dichlorobenzyl)-N-methyl]aminobenzoate]	41.7
CC(=O)Oc1cc(N(Cc2cc(Cl)cc(Cl)c2O)C(C)=O)ccc1C(=O)OC1CC2CCC1(C)C2(C)C (centres unmarked) [ZL006-31, bornyl-2-acetyloxy-4-[N-(2-hydroxy-3,5-dichlorobenzyl)-N-acetyl]aminobenzoate]	77.3
CC1(C)C2CCC1(C)C(OC(=O)c1ccc(NCc3cc(Br)cc(Cl)c3O)cc1O)C2 (centres unmarked) [ZL006-39, bornyl-2-hydroxy-4-(2-hydroxy-3-chloro-5-bromobenzyl) aminobenzoate]	81.2
CC1(C)C2CCC1(C)C(OC(=O)c1cc(NCc3cc(Br)cc(Cl)c3O)ccc1O)C2 (centres unmarked) [ZL006-40, bornyl-2-hydroxy-5-(2-hydroxy-3-chloro-5-bromobenzyl) aminobenzoate]	41.8
COc1cc(NCc2cc(Br)cc(Cl)c2O)ccc1C(=O)OC1CC2CCC1(C)C2(C)C (centres unmarked) [ZL006-41, bornyl-2-methoxy-4-(2-hydroxy-3-chloro-5-bromobenzyl) aminobenzoate]	45.5
CCCCOc1cc(NCc2cc(Br)cc(Cl)c2O)ccc1C(=O)OC1CC2CCC1(C)C2(C)C (centres unmarked) [ZL006-42, bornyl-2-n-butoxy-4-(2-hydroxy-3-chloro-5-bromobenzyl) aminobenzoate]	37.7
CN(Cc1cc(Br)cc(Cl)c1O)c1ccc(C(=O)OC2CC3CCC2(C)C3(C)C)c(O)c1 (centres unmarked) [ZL006-45, bornyl-2-hydroxy-4-[N-(2-hydroxy-3-chloro-5-bromobenzyl)-N-methyl]aminobenzoate]	67.2
CC(=O)N(Cc1cc(Br)cc(Cl)c1O)c1ccc(C(=O)OC2CC3CCC2(C)C3(C)C)c(O)c1 (centres unmarked) [ZL006-46, bornyl-2-hydroxy-4-[N-(2-hydroxy-3-chloro-5-bromobenzyl)-N-acetyl]aminobenzoate]	72.5
